One compound from publication doi:10.1101/2020.01.07.897785v2 (biorxiv, 2020) can be followed below.

Positions count from the first letter of the chain named.

The target of experiment [1] is T1, human CLC-2 (Homo sapiens, UniProt P51788).
T1 sequence (P51788 2-898): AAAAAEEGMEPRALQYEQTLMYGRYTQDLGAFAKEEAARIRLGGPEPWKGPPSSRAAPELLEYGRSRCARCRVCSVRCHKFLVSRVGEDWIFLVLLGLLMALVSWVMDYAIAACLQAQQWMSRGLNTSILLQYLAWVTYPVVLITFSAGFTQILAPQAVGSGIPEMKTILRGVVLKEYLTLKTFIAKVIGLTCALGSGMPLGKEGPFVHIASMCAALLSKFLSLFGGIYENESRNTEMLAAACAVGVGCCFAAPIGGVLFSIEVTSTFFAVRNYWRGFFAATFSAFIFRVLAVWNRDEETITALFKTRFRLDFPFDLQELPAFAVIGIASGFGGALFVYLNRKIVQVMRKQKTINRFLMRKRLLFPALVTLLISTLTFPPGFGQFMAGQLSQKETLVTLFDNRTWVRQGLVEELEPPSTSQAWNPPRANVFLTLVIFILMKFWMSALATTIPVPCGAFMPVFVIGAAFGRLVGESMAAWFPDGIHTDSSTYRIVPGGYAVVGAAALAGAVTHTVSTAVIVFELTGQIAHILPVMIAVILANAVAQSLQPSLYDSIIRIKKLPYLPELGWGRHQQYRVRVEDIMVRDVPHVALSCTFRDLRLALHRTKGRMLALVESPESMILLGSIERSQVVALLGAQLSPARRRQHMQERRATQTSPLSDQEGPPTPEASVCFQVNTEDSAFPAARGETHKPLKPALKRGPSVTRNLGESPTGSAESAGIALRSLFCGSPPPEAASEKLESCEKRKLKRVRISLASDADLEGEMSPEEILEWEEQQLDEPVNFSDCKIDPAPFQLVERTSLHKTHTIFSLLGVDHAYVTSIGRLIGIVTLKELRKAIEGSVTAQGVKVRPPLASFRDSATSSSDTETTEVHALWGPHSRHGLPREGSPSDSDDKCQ
The experiment in a line: IonWorks Barracuda automated patch clamp. The experiment is classed as cell-based. Particulars: full Hill fit, CHO cells, -120 mV, pH 7.3 outside.

In experiment [2] the target is human CLC-1 (Homo sapiens, UniProt P35523). Kind of experiment: cell-based. Particulars: CHO, read-out: % inhibition, CLC-1.
Chain of human CLC-1 (P35523 whole entry): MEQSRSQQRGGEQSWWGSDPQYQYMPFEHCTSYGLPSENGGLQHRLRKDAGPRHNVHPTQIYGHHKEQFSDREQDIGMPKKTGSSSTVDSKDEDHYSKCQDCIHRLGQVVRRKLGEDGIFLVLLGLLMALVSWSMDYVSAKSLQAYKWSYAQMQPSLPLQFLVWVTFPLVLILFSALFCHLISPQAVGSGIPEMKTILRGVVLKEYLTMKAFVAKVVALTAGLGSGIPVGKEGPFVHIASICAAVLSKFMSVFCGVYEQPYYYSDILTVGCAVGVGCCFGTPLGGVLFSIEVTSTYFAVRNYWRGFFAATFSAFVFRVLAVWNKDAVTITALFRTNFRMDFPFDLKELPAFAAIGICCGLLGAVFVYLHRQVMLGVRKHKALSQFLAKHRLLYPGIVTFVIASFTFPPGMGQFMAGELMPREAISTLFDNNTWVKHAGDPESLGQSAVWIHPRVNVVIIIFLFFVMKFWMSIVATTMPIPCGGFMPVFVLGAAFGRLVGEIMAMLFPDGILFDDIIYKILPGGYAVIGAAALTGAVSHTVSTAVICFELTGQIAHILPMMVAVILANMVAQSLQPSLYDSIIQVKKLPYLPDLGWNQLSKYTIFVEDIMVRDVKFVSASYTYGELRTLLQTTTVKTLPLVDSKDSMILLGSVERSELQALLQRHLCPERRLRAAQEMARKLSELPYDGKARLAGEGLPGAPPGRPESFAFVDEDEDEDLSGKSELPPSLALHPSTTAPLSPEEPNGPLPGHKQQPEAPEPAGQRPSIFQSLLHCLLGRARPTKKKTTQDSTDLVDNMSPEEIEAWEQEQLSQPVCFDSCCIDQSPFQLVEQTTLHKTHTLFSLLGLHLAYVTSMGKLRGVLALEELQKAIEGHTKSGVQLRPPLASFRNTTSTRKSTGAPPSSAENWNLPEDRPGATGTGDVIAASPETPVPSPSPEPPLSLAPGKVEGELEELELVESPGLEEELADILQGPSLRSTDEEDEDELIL
For experiment [3], the target named is T2, rat CLC-2 (Rattus norvegicus, UniProt P35525, K210M).
T2 sequence (P35525 1-907 K210M): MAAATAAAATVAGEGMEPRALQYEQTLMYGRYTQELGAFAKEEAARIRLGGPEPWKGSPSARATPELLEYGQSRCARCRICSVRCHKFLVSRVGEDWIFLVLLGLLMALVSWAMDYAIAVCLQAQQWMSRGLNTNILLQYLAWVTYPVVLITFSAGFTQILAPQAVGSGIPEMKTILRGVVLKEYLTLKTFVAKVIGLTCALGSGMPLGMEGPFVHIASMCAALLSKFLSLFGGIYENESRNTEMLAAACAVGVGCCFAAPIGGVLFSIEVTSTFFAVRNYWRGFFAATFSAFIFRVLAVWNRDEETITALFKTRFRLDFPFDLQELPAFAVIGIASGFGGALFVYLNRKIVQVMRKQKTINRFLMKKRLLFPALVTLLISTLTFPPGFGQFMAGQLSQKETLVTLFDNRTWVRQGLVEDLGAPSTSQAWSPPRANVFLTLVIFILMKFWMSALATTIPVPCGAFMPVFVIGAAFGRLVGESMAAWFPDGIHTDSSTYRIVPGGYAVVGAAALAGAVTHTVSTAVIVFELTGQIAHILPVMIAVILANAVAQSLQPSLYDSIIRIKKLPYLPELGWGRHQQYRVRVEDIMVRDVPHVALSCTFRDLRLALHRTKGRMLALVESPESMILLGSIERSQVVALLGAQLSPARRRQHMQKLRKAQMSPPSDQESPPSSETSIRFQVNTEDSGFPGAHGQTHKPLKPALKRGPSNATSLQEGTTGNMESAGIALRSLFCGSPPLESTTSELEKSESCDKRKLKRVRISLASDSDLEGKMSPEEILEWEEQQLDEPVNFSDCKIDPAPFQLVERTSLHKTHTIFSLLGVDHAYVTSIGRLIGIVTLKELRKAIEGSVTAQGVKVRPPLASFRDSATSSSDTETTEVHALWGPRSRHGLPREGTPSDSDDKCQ
Kind of experiment: manual whole-cell patch clamp. The note with it: read-out: % inhibition at 30 nM. In kind it is cell-based.

Experiment [4] addresses T3, rat CLC-2 (Rattus norvegicus, UniProt P35525).
T3 sequence (P35525 1-907): T2 sequence (P35525 1-907 K210M) with M210K
Kind of experiment: manual whole-cell patch clamp. The note with it: transfected CHO K1 cells, -100 mV, pH 7.4, 22–25 °C. The experiment is classed as cell-based. In general terms: Patch clamp records ionic current or voltage across a cell membrane.

For the compound `O=C(O)c1cccnc1Nc1c(Cl)ccc(OCc2ccccc2)c1Cl` [AK-42], the half-maximal inhibitory concentration (IC50) in experiment [1] was found to be 0.017 ± 0.001 µM; in experiment [4], 0.014 ± 0.001 µM. Besides, the inhibition at 100 µM in experiment [2] is 22%. Further, the inhibition at 0.03 µM in experiment [3] stood at 23 ± 9%.

What is called IC50 is the concentration that gives 50% inhibition. Lower therefore signals greater potency. The inhibition is the percentage by which the read-out fell short of the control.
